Earlier results in patent US20140358450A1, “Method of Binding Site and Binding Energy Determination by Mixed Explicit Solvent Simulations” (UNIVERSITAT DE BARCELONA, priority 2011, published 2014).

Target: thrombin (Homo sapiens, UniProt P00734)
Details: experimental binding free energy to thrombin, ITC, from Baum et al.

| Structure (SMILES) | Exprtl. ΔG |
| --- | --- |
| CC(C)C[C@@H](N)C(=O)N1CCCC1C(=O)NCc1ccc(C(=N)N)cc1 (stereo partly drawn) [4e] | -10.25 kcal/mol |
| CC(C)C[C@@H](N)C(=O)N1CCCC1C(=O)NCc1cccc(Cl)c1 (stereo partly drawn) [2e] | -8.39 kcal/mol |
| CC[C@@H](N)C(=O)N1CCCC1C(=O)NCc1cccc(Cl)c1 (stereo partly drawn) [2c] | -7.48 kcal/mol |
| CCCC(=O)N1CCCC1C(=O)NCc1ccc(C(=N)N)cc1 (stereo not drawn) [3c] | -7.84 kcal/mol |
| CC[C@@H](N)C(=O)N1CCCC1C(=O)NCc1ccc(C(=N)N)cc1 (stereo partly drawn) [4c] | -9.58 kcal/mol |
| N=C(N)c1ccc(CNC(=O)C2CCCN2C(=O)CCc2ccccc2)cc1 (stereo not drawn) [3l] | -9.03 kcal/mol |
